In EP4722207A1, “OXOISOINDOLINYL-SUBSTITUTED TETRAHYDROPYRIMIDINEDIONE DERIVATIVE AND USE THEREOF” (Gluetacs Therapeutics (Shanghai) Co., Ltd., priority 2023, dated 2024):

Tests used:
IKZF2 = target: T1, IKZF2 (Homo sapiens, UniProt Q96SW2+Q9UKS7); assay: Western-blot assay, substrate protein degradation in hPBMCs: IKZF2; format: cell-based; conditions: 24 hours of compound treatment, 50 nM and 500 nM
T1 construct: effects of the compounds of the present disclosure on the expression of target proteins in cells; endogenous in cells; host or cells: human PBMCs (hPBMCs)
T1 sequence (Q9UKS7 whole entry): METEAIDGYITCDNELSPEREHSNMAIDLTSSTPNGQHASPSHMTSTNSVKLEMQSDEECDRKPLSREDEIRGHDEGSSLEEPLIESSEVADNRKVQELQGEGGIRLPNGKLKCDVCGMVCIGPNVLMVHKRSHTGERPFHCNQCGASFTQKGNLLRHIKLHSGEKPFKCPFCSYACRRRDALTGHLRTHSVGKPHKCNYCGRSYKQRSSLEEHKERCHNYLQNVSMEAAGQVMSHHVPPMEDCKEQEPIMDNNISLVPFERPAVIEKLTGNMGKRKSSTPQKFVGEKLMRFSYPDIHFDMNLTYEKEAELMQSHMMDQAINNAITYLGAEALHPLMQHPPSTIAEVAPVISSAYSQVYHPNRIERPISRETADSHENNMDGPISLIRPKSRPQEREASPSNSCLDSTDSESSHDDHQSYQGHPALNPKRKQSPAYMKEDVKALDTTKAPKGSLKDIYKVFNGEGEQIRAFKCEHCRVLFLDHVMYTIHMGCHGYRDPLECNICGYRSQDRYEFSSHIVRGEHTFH
T1 sequence (Q96SW2 whole entry): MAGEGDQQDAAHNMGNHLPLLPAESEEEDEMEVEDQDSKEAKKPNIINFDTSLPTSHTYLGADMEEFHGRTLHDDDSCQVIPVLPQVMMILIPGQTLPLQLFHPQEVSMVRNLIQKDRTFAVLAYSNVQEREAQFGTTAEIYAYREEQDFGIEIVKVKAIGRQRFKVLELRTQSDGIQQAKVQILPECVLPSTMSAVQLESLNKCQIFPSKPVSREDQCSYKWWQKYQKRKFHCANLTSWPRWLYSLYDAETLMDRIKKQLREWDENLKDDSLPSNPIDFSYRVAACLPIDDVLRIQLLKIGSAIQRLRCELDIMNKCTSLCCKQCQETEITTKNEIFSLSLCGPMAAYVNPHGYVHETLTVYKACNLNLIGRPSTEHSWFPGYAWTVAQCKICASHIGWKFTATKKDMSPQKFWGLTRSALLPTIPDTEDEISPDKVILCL
T1 sequence (Q16531 whole entry partner): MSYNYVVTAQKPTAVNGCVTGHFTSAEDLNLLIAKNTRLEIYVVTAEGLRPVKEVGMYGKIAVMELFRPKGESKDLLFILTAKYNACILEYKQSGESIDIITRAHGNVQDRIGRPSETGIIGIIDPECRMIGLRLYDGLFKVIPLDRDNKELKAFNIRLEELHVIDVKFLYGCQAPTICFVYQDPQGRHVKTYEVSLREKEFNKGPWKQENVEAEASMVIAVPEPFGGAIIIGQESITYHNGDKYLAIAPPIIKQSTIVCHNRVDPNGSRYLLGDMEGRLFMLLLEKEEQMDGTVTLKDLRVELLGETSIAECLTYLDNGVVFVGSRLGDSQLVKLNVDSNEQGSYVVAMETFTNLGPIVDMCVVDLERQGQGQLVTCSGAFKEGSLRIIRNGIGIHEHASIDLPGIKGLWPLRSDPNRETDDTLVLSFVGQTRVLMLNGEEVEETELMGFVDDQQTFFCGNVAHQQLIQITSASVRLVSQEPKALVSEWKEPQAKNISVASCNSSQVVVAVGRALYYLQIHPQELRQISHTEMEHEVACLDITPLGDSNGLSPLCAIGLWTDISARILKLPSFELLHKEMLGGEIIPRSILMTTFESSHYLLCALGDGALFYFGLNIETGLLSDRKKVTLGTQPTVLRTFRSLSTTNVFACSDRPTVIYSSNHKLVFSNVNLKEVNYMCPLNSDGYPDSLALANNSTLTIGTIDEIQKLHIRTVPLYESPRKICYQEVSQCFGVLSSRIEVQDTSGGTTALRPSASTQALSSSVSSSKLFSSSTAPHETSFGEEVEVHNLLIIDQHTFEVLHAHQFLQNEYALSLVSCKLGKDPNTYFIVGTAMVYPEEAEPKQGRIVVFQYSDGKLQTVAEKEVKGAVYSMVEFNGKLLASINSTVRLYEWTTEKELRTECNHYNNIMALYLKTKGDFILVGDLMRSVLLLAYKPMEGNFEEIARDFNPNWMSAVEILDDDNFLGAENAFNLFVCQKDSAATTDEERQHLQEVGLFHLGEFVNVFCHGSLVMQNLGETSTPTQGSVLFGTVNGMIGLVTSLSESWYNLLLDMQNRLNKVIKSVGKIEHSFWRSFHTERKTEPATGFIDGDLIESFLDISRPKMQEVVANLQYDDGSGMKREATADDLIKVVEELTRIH

GSPT1 = target: T2, GSPT1 (Homo sapiens, UniProt P15170+Q96SW2); assay: Western-blot assay, substrate protein degradation in hPBMCs: GSPT1; format: cell-based; conditions: 24 hours of compound treatment, 50 nM and 500 nM
T2 construct: effects of the compounds of the present disclosure on the expression of target proteins in cells; endogenous in cells; host or cells: human PBMCs (hPBMCs)
T2 sequence (P15170 whole entry): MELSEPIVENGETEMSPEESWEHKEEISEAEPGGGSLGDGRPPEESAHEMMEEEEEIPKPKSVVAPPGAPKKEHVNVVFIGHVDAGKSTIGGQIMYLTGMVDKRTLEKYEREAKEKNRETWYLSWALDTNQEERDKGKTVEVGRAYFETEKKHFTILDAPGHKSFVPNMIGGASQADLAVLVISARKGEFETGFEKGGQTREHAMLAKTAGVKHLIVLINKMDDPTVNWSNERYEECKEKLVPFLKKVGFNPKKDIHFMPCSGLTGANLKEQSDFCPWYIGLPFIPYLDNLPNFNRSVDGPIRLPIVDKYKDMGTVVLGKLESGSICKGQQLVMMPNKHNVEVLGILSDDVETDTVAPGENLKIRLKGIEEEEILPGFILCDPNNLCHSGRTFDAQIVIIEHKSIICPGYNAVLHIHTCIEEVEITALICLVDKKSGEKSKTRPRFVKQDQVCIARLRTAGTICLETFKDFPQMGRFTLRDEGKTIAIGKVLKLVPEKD
T2 sequence (Q96SW2 whole entry): as the sequence (Q96SW2 whole entry) above
T2 sequence (Q16531 whole entry partner): as the sequence (Q16531 whole entry partner) above

H292 = assay: Cell viability assay (CellTiter-Meiluncell Luminescent), tumor cell proliferation, H292; conditions: Homo sapiens, NCI-H292, 96 h; for inhibition at 0.01 µM: read-out: Inhibition Rate at 10 nM (%); for inhibition at 0.5 µM: read-out: Inhibition Rate at 500 nM (%)
Description: The tumor cells used herein were cultured in a cell culture medium listed in table 2 at 37°C in an incubator with 5% CO2. Prior to experimentation, all cell lines used were correctly identified by STR profiling, and tested negative for mycoplasma contamination using a mycoplasma detection kit through routine screenings.
On the following day, the test compounds of the present disclosure were subjected to serial dilution. […] Subsequently, 0.5 µL of the test compound dilution was transferred into the 96-well plate containing the cells, with each well containing 100 µL of cell culture medium. […] Into the 96-well plate, the diluted test compounds and corresponding detection reagents were added, resulting in final test compound concentrations of 500 nM and 10 nM, respectively. The experimental procedure is described below using the diluted 2 µM test compound as an example.
After the cells were treated with the compounds of the present disclosure for a specified period, the cell viability assay reagent was added to the culture medium according to the kit's instructions to determine cell viability. […] All controls were treated using the same procedure as the compounds of the present disclosure. The growth inhibition curves for the compounds of the present disclosure were plotted using Prism GraphPad software, and the IC50 values were calculated therefrom.

CK1α = target: T3, CK1α (Homo sapiens, UniProt P48729+Q96SW2); assay: Western-blot assay, substrate protein degradation in hPBMCs: CK1α; format: cell-based; conditions: 24 hours of compound treatment, 50 nM and 500 nM
T3 construct: effects of the compounds of the present disclosure on the expression of target proteins in cells; endogenous in cells; host or cells: human PBMCs (hPBMCs)
T3 sequence (P48729 whole entry): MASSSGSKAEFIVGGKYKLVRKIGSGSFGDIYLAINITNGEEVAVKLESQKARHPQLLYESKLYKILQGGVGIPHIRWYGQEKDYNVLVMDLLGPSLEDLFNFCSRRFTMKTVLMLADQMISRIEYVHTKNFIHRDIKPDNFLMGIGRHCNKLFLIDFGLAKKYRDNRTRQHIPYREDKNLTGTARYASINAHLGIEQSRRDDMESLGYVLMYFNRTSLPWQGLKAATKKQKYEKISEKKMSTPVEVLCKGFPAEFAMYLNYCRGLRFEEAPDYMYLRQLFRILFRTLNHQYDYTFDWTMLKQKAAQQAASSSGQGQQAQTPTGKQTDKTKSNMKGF
T3 sequence (Q96SW2 whole entry): as the sequence (Q96SW2 whole entry) above
T3 sequence (Q16531 whole entry partner): as the sequence (Q16531 whole entry partner) above

WEE1 = target: T4, WEE1 (Homo sapiens, UniProt P30291+Q96SW2); assay: Western-blot assay, substrate protein degradation in hPBMCs: WEE1; format: cell-based; conditions: 24 hours of compound treatment, 50 nM and 500 nM
T4 construct: effects of the compounds of the present disclosure on the expression of target proteins in cells; endogenous in cells; host or cells: human PBMCs (hPBMCs)

IKZF1 = target: T5, IKZF1 (Homo sapiens, UniProt Q13422+Q96SW2); assay: Western-blot assay, substrate protein degradation in hPBMCs: IKZF1; format: cell-based; conditions: 24 hours of compound treatment, 50 nM and 500 nM
T5 construct: effects of the compounds of the present disclosure on the expression of target proteins in cells; endogenous in cells; host or cells: human PBMCs (hPBMCs)
T5 sequence (Q13422 whole entry): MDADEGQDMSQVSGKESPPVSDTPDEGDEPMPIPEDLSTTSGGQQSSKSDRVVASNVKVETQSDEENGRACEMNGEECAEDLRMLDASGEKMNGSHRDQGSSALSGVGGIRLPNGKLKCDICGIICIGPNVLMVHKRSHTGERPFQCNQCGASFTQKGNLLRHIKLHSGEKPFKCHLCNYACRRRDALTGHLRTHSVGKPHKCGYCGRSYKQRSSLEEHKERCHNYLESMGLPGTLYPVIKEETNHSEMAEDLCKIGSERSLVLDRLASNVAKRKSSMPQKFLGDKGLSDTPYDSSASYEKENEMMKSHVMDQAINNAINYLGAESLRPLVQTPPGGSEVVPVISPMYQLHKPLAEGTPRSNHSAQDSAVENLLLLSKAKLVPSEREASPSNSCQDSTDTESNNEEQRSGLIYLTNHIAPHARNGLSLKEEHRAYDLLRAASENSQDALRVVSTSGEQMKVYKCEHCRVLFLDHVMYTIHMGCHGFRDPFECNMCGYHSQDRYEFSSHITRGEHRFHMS
T5 sequence (Q96SW2 whole entry): as the sequence (Q96SW2 whole entry) above
T5 sequence (Q16531 whole entry partner): as the sequence (Q16531 whole entry partner) above

IKZF3 = target: T6, IKZF3 (Homo sapiens, UniProt Q96SW2+Q9UKT9); assay: Western-blot assay, substrate protein degradation in hPBMCs: IKZF3; format: cell-based; conditions: 24 hours of compound treatment, 50 nM and 500 nM
T6 construct: effects of the compounds of the present disclosure on the expression of target proteins in cells; endogenous in cells; host or cells: human PBMCs (hPBMCs)
T6 sequence (Q9UKT9 whole entry): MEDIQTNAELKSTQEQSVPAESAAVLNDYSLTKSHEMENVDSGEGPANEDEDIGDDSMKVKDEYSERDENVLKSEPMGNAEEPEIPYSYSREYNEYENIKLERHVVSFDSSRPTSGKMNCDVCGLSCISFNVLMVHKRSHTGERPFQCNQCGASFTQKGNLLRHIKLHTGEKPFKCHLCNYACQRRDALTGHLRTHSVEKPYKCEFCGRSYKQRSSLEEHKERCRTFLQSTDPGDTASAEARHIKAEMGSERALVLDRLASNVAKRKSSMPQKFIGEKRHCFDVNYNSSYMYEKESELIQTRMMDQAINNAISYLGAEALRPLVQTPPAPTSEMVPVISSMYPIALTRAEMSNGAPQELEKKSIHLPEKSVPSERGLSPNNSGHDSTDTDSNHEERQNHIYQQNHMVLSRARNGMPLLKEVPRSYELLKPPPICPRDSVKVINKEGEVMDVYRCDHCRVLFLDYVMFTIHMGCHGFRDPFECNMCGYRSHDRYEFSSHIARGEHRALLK
T6 sequence (Q96SW2 whole entry): as the sequence (Q96SW2 whole entry) above
T6 sequence (Q16531 whole entry partner): as the sequence (Q16531 whole entry partner) above

Compound | substrate protein remaining % IKZF2 (IKZF2) | substrate protein remaining % GSPT1 (GSPT1) | inhibition at 0.01 µM (H292) [%] | inhibition at 0.5 µM (H292) [%] | substrate protein remaining % CK1α (CK1α) | substrate protein remaining % WEE1 (WEE1) | substrate protein remaining % IKZF1 (IKZF1) | substrate protein remaining % IKZF3 (IKZF3)
O=C1CCN(N2C(=O)c3ccc(CN4CCC(c5ncnc6sc7c(c56)CCCC7)CC4)cc3C2=O)C(=O)N1 [GT-08424, 2-(2,4-dioxotetrahydropyrimidin-1(2H)-yl)-5-((4-(5,6,7,8-tetrahydrobenzo[4,5]thieno[2,3-d]pyrimidin-4-yl)piperidin-1-yl)methyl)isoindoline-1,3-dione] | B (80%< substrate protein remaining %≤ 100%) | A (0% ≤ substrate protein remaining % ≤ 80%) | 20 to 40 | 10 to 15 | A (0% ≤ substrate protein remaining % ≤ 80%) | B (80%< substrate protein remaining %≤ 100%) | B (80%< substrate protein remaining %≤ 100%) | B (80%< substrate protein remaining %≤ 100%)
O=C1CCN(N2C(=O)c3ccc(CN4CCC(c5ncc6ccsc6n5)CC4)cc3C2=O)C(=O)N1 [GT-08427, 2-(2,4-dioxotetrahydropyrimidin-1(2H)-yl)-5-((4-(thieno[2,3-d]pyrimidin-2-yl)piperidin-1-yl)methyl)isoindoline-1,3-dione] | A (0% ≤ substrate protein remaining % ≤ 80%) | B (80%< substrate protein remaining %≤ 100%) | 15 to 20 | 20 to 40 | B (80%< substrate protein remaining %≤ 100%) | A (0% ≤ substrate protein remaining % ≤ 80%) | B (80%< substrate protein remaining %≤ 100%) | B (80%< substrate protein remaining %≤ 100%)
Cc1csc2ncnc(C3=CCN(Cc4ccc5c(c4)C(=O)N(N4CCC(=O)NC4=O)C5=O)CC3)c12 [GT-08428, 2-(2,4-dioxotetrahydropyrimidin-1(2H)-yl)-5-((4-(5-methylthieno[2,3-d]pyrimidin-4-yl)-3,6-dihydropyridin-1(2H)-yl)methyl)isoindoline-1,3-dione] | A (0% ≤ substrate protein remaining % ≤ 80%) | B (80%< substrate protein remaining %≤ 100%) | 5 to 10 | 20 to 40 | B (80%< substrate protein remaining %≤ 100%) | A (0% ≤ substrate protein remaining % ≤ 80%) | B (80%< substrate protein remaining %≤ 100%) | A (0% ≤ substrate protein remaining % ≤ 80%)
O=C1CCN(N2C(=O)c3ccc(CN4CC=C(c5ncnc6sc(-c7ccccc7)cc56)CC4)cc3C2=O)C(=O)N1 [GT-08430, 2-(2,4-dioxotetrahydropyrimidin-1(2H)-yl)-5-((4-(6-phenylthieno[2,3-d]pyrimidin-4-yl)-3,6-dihydropyridin-1(2H)-yl)methyl)isoindoline-1,3-dione] | B (80%< substrate protein remaining %≤ 100%) | B (80%< substrate protein remaining %≤ 100%) | 15 to 20 | 10 to 15 | B (80%< substrate protein remaining %≤ 100%) | A (0% ≤ substrate protein remaining % ≤ 80%) | B (80%< substrate protein remaining %≤ 100%) | B (80%< substrate protein remaining %≤ 100%)
Cc1nc(C2=CCN(Cc3ccc4c(c3)C(=O)N(N3CCC(=O)NC3=O)C4=O)CC2)c2c3c(sc2n1)CCCC3 [GT-08432, 2-(2,4-dioxotetrahydropyrimidin-1(2H)-yl)-5-((4-(2-methyl-5,6,7,8-tetrahydrobenzo[4,5]thieno[2,3-d]pyrimidin-4-yl)-3,6-dihydropyridin-1(2H)-yl)methyl)isoindoline-1,3-dione] | B (80%< substrate protein remaining %≤ 100%) | A (0% ≤ substrate protein remaining % ≤ 80%) | 20 to 40 | 20 to 40 | A (0% ≤ substrate protein remaining % ≤ 80%) | B (80%< substrate protein remaining %≤ 100%) | B (80%< substrate protein remaining %≤ 100%) | A (0% ≤ substrate protein remaining % ≤ 80%)
O=C1CCN(N2C(=O)c3ccc(CN4CC=C(c5ncnc6sc7c(c56)CCC7)CC4)cc3C2=O)C(=O)N1 [GT-08434, 5-((4-(6,7-dihydro-5H-cyclopenta[4,5]thieno[2,3-d]pyrimidin-4-yl)-3,6-dihydropyridin-1(2H)-yl)methyl)-2-(2,4-dioxotetrahydropyrimidin-1(2H)-yl)isoindoline-1,3-dione] | A (0% ≤ substrate protein remaining % ≤ 80%) | A (0% ≤ substrate protein remaining % ≤ 80%) | 20 to 40 | 15 to 20 | A (0% ≤ substrate protein remaining % ≤ 80%) | B (80%< substrate protein remaining %≤ 100%) | A (0% ≤ substrate protein remaining % ≤ 80%) | A (0% ≤ substrate protein remaining % ≤ 80%)
Cc1nc(C2=CCN(Cc3ccc4c(c3)CN(N3CCC(=O)NC3=O)C4=O)CC2)c2c3c(sc2n1)CCC3 [GT-08437, 1-(5-((4-(2-methyl-6,7-dihydro-5H-cyclopenta[4,5]thieno[2,3-d]pyrimidin-4-yl)-3,6-dihydropyridin-1(2H)-yl)methyl)-1-oxoisoindolin-2-yl)dihydropyrimidine-2,4(1H,3H)-dione] | B (80%< substrate protein remaining %≤ 100%) | A (0% ≤ substrate protein remaining % ≤ 80%) | 20 to 40 | 15 to 20 | B (80%< substrate protein remaining %≤ 100%) | A (0% ≤ substrate protein remaining % ≤ 80%) | A (0% ≤ substrate protein remaining % ≤ 80%) | A (0% ≤ substrate protein remaining % ≤ 80%)
O=C1CCN(N2Cc3cc(CN4CCN(c5nc(Cl)nc6c5SCC6)CC4)ccc3C2=O)C(=O)N1 [GT-08439, 1-(5-((4-(2-chloro-6,7-dihydrothieno[3,2-d]pyrimidin-4-yl)piperazin-1-yl)methyl)-1-oxoisoindolin-2-yl)dihydropyrimidine-2,4(1H,3H)-dione] | B (80%< substrate protein remaining %≤ 100%) | A (0% ≤ substrate protein remaining % ≤ 80%) | 20 to 40 | 20 to 40 | B (80%< substrate protein remaining %≤ 100%) | A (0% ≤ substrate protein remaining % ≤ 80%) | A (0% ≤ substrate protein remaining % ≤ 80%) | A (0% ≤ substrate protein remaining % ≤ 80%)
